In patent US9169205B2, “Pyrrolidine derivatives, pharmaceutical compositions and uses thereof” (Boehringer Ingelheim International GmbH, priority 2012, dated 2015):

These molecules were tested against human ACC2 (Homo sapiens (Human), UniProt O00763) (assay: ACC2 assay (spectrophotometric 384 well assay, NADH-linked kinetic method)). Settings: hACC2 construct lacking 128 N-terminal amino acids, 25° C., 340 nm.
Type: biochemical
Method: Spectrophotometric 384 Well Assay
Malonyl CoA formation by acetyl CoA carboxylases is stoichometrically linked to the consumption of ATP. ACC2 activity is measured in a NADH-linked kinetic method measuring ADP generated during the ACC reaction using a coupled lactate dehydrogenase/pyruvate kinase reaction.
The protein is then expressed in insect cells using a baculoviral expression system. Protein purification is performed by anion exchange.
All compounds are dissolved in dimethyl sulfoxide (DMSO) to a concentration of 10 mM.
The enzymatic reaction is then started by addition of a mixture of NADH, acetyl Coenzyme A (both 200 μM f.c.) and ATP (500 uM f.c.). The decrease of the optical density (slope S) is then determined at 25° C. at a wavelength of 340 nm over 15 minutes in a spectrophotometric reader.
Each assay microtiter plate contains wells with vehicle instead of compound as controls for the non-inhibited enzyme (100% CTL; ‘HIGH’) and wells without acetyl-CoA as controls for non-specific NADH degradation (0% CTL; ‘LOW’).

Chain of human ACC2 (O00763 129-2458): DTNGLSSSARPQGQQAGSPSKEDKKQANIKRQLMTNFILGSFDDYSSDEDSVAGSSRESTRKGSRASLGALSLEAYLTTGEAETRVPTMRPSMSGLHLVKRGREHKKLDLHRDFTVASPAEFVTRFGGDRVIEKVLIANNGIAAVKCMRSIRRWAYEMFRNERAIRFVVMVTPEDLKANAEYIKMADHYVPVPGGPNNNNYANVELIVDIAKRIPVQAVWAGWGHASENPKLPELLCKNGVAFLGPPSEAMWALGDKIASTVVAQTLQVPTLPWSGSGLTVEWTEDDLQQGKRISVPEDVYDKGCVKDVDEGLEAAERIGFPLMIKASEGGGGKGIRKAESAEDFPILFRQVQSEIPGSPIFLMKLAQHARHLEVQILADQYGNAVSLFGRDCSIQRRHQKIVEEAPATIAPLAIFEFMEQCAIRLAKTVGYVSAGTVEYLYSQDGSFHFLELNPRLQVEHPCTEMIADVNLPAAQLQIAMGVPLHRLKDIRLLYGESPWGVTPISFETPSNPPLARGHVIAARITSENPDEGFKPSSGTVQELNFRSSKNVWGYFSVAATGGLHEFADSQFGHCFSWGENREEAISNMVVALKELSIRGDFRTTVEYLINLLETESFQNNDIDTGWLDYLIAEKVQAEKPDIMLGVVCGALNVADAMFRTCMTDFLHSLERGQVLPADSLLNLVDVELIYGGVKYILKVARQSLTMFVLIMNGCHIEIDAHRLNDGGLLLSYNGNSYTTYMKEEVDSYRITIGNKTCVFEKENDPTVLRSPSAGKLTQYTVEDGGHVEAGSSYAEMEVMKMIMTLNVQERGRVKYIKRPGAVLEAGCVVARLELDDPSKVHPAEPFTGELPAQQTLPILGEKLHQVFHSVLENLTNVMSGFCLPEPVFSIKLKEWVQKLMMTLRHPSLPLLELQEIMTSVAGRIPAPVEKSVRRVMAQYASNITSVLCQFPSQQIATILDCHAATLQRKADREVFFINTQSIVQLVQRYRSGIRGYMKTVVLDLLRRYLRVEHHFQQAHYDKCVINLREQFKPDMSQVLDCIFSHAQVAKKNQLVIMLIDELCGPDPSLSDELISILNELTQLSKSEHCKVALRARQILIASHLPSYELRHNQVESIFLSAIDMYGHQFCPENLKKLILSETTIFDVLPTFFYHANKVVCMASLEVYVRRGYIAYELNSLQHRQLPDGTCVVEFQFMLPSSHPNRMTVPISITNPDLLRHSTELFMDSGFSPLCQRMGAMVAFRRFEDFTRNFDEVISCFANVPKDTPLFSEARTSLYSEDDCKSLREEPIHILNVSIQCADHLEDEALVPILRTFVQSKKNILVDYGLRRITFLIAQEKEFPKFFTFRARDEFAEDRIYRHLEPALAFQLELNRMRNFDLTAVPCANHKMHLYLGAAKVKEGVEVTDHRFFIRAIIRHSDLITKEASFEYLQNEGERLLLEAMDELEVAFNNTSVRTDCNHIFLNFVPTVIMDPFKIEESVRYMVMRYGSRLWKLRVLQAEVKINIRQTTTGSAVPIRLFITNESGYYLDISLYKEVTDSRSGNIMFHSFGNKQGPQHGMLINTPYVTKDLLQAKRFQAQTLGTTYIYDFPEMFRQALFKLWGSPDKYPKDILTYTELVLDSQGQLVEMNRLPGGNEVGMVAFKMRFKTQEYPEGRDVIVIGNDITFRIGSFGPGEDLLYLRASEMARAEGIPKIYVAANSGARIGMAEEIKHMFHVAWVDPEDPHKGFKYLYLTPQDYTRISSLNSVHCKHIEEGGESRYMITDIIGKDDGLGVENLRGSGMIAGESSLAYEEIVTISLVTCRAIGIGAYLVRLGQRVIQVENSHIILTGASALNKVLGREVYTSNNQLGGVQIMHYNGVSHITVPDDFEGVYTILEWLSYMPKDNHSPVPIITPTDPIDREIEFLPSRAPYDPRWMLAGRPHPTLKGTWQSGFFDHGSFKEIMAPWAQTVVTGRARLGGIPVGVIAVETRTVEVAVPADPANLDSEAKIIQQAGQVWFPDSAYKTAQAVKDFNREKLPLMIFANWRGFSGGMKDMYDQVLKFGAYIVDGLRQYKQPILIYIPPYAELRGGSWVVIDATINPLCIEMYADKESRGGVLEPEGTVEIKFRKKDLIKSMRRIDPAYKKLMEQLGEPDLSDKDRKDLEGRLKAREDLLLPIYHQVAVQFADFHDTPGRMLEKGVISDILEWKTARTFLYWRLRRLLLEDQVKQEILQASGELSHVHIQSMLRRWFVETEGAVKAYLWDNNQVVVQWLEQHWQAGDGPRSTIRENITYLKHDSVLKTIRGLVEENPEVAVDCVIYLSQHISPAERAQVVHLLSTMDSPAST

IC50 [nM] | SMILES
140 | CCCOc1ccc(N2CCC(Oc3ccc([C@H](C)NC(C)=O)cc3)C2)cc1 (some centres unmarked) [Example 1.8]
214 | CC(=O)N[C@@H](C)c1ccc(OC2CCN(c3ccc4c(c3)OCC(C)(C)CO4)C2)cc1 (some centres unmarked) [Example 1.18]
298 | CC(=O)NC(C)c1ccc(OC2CCN(c3ccc(OCC4CC4)cc3)C2)nc1 (centres unmarked) [Example 1.56]
805 | C[C@H](NC(=O)c1cnn(CC(F)F)c1)c1ccc(O[C@@H]2CCN(c3ccc(OCC4CC4)cc3)C2)cc1 [Example 2.52]
71 | C[C@H](NC(=O)CC#N)c1ccc(O[C@@H]2CCN(c3ccc(OCC4CC4)cc3)C2)cc1 [Example 2.31]
174 | CC(=O)N[C@@H](C)c1ccc(OC2CCN(c3cc(C(F)(F)F)ccc3C)C2)cc1 (some centres unmarked) [Example 1.30]
671 | C[C@H](NC(=O)C1CCC(=O)N1)c1ccc(O[C@@H]2CCN(c3ccc(OCC4CC4)cc3)C2)cc1 (some centres unmarked) [Example 2.2]
749 | COCCOC1CN(c2ccc(OCC3CC3)cc2)CC1Oc1ccc([C@H](C)NC(C)=O)cc1 (some centres unmarked) [Example 1.77]
224 | CC(=O)N[C@@H](C)c1ccc(OC2CCN(c3ccc(F)c(C(F)(F)F)c3)C2)cc1 (some centres unmarked) [Example 1.34]
1750 | C[C@H](NC(=O)C1CC[C@@H](N)C1)c1ccc(O[C@@H]2CCN(c3ccc(OCC4CC4)cc3)C2)cc1 (some centres unmarked) [Example 9]
23 | CCC(=O)Nc1nc(C)c(C(=O)N[C@@H](C)c2ccc(OC3CCN(c4ccc(OCC5CC5)cc4)C3)cc2)s1 (some centres unmarked) [Example 2.41]
385 | Cc1c(C(=O)N[C@@H](C)c2ccc(O[C@@H]3CCN(c4ccc(OCC5CC5)cc4)C3)cc2)cnn1C [Example 2.47]
175 | CO[C@@H]1CN(c2ccc(OCC3CC3)cc2)CC1Oc1ccc([C@H](C)NC(C)=O)cc1 (some centres unmarked) [Example 1.51]
384 | COc1cc(F)c(N2CCC(Oc3ccc([C@H](C)NC(C)=O)cc3)C2)cc1F (some centres unmarked) [Example 1.92]
166 | CC(=O)N[C@@H](C)c1ccc(OC2CCN(c3cccc(C(F)F)c3)C2)cc1 (some centres unmarked) [Example 1.95]
39 | C[C@H](NC(=O)C(F)(F)F)c1ccc(O[C@@H]2CCN(c3ccc(OCC4CC4)cc3)C2)cc1 [Example 6, N—((S)-1-(4-((R)-1-(4-(Cyclopropylmethoxy)phenyl)pyrrolidin-3-yloxy)phenyl)-ethyl)-2,2,2-trifluoroacetamide]
231 | CC(=O)N[C@@H](C)c1ccc(OC2CCN(c3ccc(OC4CC4)cc3C)C2)nc1 (some centres unmarked) [Example 1.103]
214 | CC(=O)N[C@@H](C)c1ccc(OC2CCN(c3ccc(OC(C)C)cc3)C2)cc1 (some centres unmarked) [Example 1.15]
110 | CC(=O)N[C@@H](C)c1ccc(OC2CCN(c3cccc(C(F)(F)F)c3)C2)cc1 (some centres unmarked) [Example 1.27]
87 | CC(=O)N[C@@H](C)c1ccc(OC2CCN(c3ccc(OCC4CC4)c(F)c3)C2)cc1 (some centres unmarked) [Example 1.100]
198 | CCOc1ccc(N2CCC(Oc3ccc([C@H](C)NC(C)=O)cc3)C2)cc1 (some centres unmarked) [Example 1.2]
124 | CC(C)Oc1ccc(N2CC[C@@H](Oc3ccc([C@H](C)NC(=O)C(F)(F)F)cc3)C2)cc1 [Example 2.19]
709 | CC(=O)N[C@@H](C)c1ccc(OC2CCN(c3ccc4c(c3)COC4)C2)cc1 (some centres unmarked) [Example 1.75]
495 | C[C@H](NC(=O)c1cnn(CCO)c1)c1ccc(O[C@@H]2CCN(c3ccc(OCC4CC4)cc3)C2)cc1 [Example 2.51]
20 | COCC(=O)Nc1nc(C)c(C(=O)N[C@@H](C)c2ccc(OC3CCN(c4ccc(OCC5CC5)cc4)C3)cc2)s1 (some centres unmarked) [Example 2.42]
1780 | CC(=O)N[C@@H](C)c1ccc(OC2CCN(c3ccc(OCC4CC4)cc3)C2)cn1 (stereo partly drawn) [Example 7.1, N—((S)-1-(5-((R)-1-(4-(Cyclopropylmethoxy)phenyl)pyrrolidin-3-ylox)pyridin-2-yl)ethyl)acetamide]
573 | CC(=O)N[C@@H](C)c1ccc(OC2CCN(c3ccc(OCC4CCCO4)cc3)C2)cc1 (some centres unmarked) [Example 1.21]

IC50 [nM] | SMILES
2960 | CC(=O)N[C@@H](C)c1ccc(OC2CCN(c3cccc4c3OCCO4)C2)cc1 (some centres unmarked) [Example 1.20]
899 | CC(=O)N[C@@H](C)c1ccc(OC2CCN(c3ccc(Cl)cc3)C2)cc1 (some centres unmarked) [Example 1.12]
793 | C[C@H](O)C(=O)N[C@@H](C)c1ccc(O[C@@H]2CCN(c3ccc(OCC4CC4)cc3)C2)cc1 [Example 2.30]
147 | CC(=O)N[C@@H](C)c1ccc(OC2CCN(c3ccc(OC4CC4)cc3F)C2)cc1 (some centres unmarked) [Example 1.40]
47 | Cc1[nH]ncc1C(=O)N[C@@H](C)c1ccc(O[C@@H]2CCN(c3ccc(OCC4CC4)cc3)C2)cc1 [Example 2.26]
863 | Cc1cc(OC2CC2)ccc1N1CCC(Oc2ccc([C@H](C)NC(=O)N3CCOCC3)cc2)C1 (some centres unmarked) [Example 3.13]
90 | Cc1cc(OC2CC2)ccc1N1CC[C@@H](Oc2ccc([C@H](C)NC(=O)c3cnoc3C)cc2)C1 [Example 2.65]
496 | CC(=O)N[C@@H](C)c1ccc(OC2CCN(c3ccc(OC(F)F)cc3)C2)cc1 (some centres unmarked) [Example 1.79]
559 | COc1ccc(N2CCC(Oc3ccc([C@H](C)NC(C)=O)cc3)C2)c(F)c1 (some centres unmarked) [Example 1.22]
108 | C[C@H](NC(=O)N(C)C)c1ccc(OC2CCN(c3ccc(OC4CC4)cc3)C2)cc1 (some centres unmarked) [Example 1.64]
86 | CC(=O)N[C@@H](C)c1ccc(OC2CCN(c3ccc(OC4CC4)cc3C)C2)cc1 (some centres unmarked) [Example 1.25]
357 | Cc1cc(OC2CC2)ccc1N1CC[C@@H](Oc2ccc([C@H](C)NC(=O)c3cn[nH]c3)cc2)C1 [Example 2.64]
546 | CC(=O)N[C@@H](C)c1ccc(OC2CCN(c3ccc(OCC(F)(F)F)cc3)C2)cc1 (some centres unmarked) [Example 1.78]
705 | CNC(=O)c1cccc(C(=O)N[C@@H](C)c2ccc(O[C@@H]3CCN(c4ccc(OCC5CC5)cc4)C3)cc2)n1 [Example 2.14]
415 | CC(=O)N[C@@H](C)c1ccc(OC2CCN(c3cc(Cl)ccc3C)C2)cc1 (some centres unmarked) [Example 1.60]
69 | CC(=O)N[C@@H](C)c1ccc(OC2CCN(c3ccc(OCC4CC4)cc3C)C2)cc1 (some centres unmarked) [Example 1.84]
36 | CC(=O)N[C@@H](C)c1ccc(OC2CCN(c3ccc(OC4CCC4)cc3)C2)cc1 (some centres unmarked) [Example 1.14]
589 | CC(=O)N[C@@H](C)c1ccc(OC2CCN(c3ccc(OC4CCOC4)cc3F)C2)cc1 (some centres unmarked) [Example 1.42]
163 | CCOc1ccc(N2CC[C@@H](Oc3ccc([C@H](C)NC(=O)c4sc(NC(=O)CO)nc4C)cc3)C2)cc1 [Example 10, N—((S)-1-(4-((R)-1-(4-Ethoxyphenyl)pyrrolidin-3-yloxy)phenyl)-ethyl)-2-(2-hydroxyacetamido)-4-methylthiazole-5-carboxamide]
551 | Cc1ncncc1C(=O)N[C@@H](C)c1ccc(O[C@@H]2CCN(c3ccc(OCC4CC4)cc3)C2)cc1 [Example 2.18]
49 | COC(=O)N[C@@H](C)c1ccc(O[C@@H]2CCN(c3ccc(OCC4CC4)cc3)C2)cc1 [Example 5.1, Methyl-(S)-1-(4-((R)-1-(4-(cyclopropylmethoxy)phenyl)pyrrolidin-3-yloxy)phenyl)-ethylcarbamate]
212 | CC(=O)N[C@@H](C)c1ccc(OC2CCN(c3ccc(OCCC(F)F)cc3)C2)nc1 (some centres unmarked) [Example 1.102]
309 | CCOC(=O)C1(Oc2ccc(N3CCC(Oc4ccc([C@H](C)NC(C)=O)cc4)C3)cc2)CCC1 (some centres unmarked) [Example 4.2]
230 | CC(=O)N[C@@H](C)c1ccc(OC2CCN(c3ccc(OCC4CC4)cc3F)C2)cc1 (some centres unmarked) [Example 1.10]
272 | CC(=O)N[C@@H](C)c1ccc(OC2CCN(c3ccc(OC4CCOC4)cc3)C2)cc1 (some centres unmarked) [Example 1.71]
263 | CCOc1ccc(N2CC[C@H](Oc3ccc([C@H](C)NC(C)=O)cc3)C2)cc1 [Example 1.3]
